Results published in patent US9403832B2, “Pyrazolo[1,5-a]pyrimidine-based compounds, compositions comprising them, and methods of their use” (Lexicon Pharmaceuticals, Inc., priority 2012, dated 2016).

Columns and labels:
[1] = molecular target: T1, AAK1 (Homo sapiens, UniProt Q2M2I8); test: HEK281 cell-based assay (CBA); conditions: HEK293F cells transfected with full length human AAK1 and AP2M1; phospho-mu2 Western blot; 3 hours incubation
T1 construct: NP_055726.2
In short: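 HEK293F cells co-transfected with full-length human AAK1/HA and Flag-AP2M1 (mu2), then treated in suspension with compounds (5 concentrations, 3-fold steps) in DMEM+0.5% FBS for 3 hours at 37° C. Phospho-mu2 and total mu2 (anti-Flag) assessed by Western blot.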

[2] = molecular target: T1, AAK1; test: P81 filter plate assay; type: biochemical; conditions: full-length human AAK1, Mu2 substrate, 33P-ATP
In short: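 Full-length human AAK1 (0.2 nM, 2×) was pre-incubated 10 min at RT with compounds (top concentration 96 μM in the dilution plate), then reacted 1 h at RT with full-length human Mu2 (0.2 μM, 2×), cold ATP (2 μM, 2×) and ³³P-ATP. Reactions were stopped with phosphoric acid and captured on P81 filters for scintillation counting.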

T1 sequence (Q2M2I8 1-863 isoform Q2M2I8-2): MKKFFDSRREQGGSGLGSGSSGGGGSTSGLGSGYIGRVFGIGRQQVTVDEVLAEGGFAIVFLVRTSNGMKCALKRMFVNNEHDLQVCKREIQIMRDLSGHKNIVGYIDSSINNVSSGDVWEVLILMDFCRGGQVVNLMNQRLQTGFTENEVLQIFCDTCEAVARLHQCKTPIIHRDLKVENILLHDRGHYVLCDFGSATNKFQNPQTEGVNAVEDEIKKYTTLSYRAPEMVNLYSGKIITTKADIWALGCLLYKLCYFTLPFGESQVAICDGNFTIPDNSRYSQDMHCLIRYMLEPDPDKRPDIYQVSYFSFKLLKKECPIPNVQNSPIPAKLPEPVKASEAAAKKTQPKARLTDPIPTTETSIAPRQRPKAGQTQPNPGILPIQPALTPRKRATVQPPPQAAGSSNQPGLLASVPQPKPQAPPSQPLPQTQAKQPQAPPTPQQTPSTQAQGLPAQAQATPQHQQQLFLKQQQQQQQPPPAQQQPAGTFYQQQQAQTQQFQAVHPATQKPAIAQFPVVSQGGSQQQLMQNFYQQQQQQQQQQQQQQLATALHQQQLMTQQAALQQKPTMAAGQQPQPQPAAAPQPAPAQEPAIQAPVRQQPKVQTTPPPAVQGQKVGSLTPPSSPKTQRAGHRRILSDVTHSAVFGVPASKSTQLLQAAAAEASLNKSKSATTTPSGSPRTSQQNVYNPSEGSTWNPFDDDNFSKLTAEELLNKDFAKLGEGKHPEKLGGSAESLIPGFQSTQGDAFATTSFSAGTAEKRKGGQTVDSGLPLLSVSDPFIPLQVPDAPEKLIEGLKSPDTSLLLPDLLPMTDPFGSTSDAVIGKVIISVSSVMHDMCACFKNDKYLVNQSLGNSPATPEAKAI

Row | SMILES | IC50 [1] | IC50 [2]
1 | CCCOC(=O)N1CCN(c2ccn3ncc(-c4cccnc4OC)c3n2)CC1 [propyl 4-(3-(2-methoxypyridin-3-yl)pyrazolo[1,5-a]pyrimidin-5-yl)piperazine-1-carboxylate] | ≤ 100 nM | ≤ 10 nM
2 | COc1nc(C)ccc1-c1cnn2ccc(N3CC[C@H](N(C)C(=O)OC(C)C)C3)nc12 [(S)-isopropyl (1-(3-(2-d3-methoxy-6-methylpyridin-3-yl)pyrazolo[1,5-a]pyrimidin-5-yl)pyrrolidin-3-yl)(methyl)carbamate] | ≤ 100 nM | ≤ 10 nM
3 | COCC(C)OC(=O)N1CCN(c2ccn3ncc(-c4cccnc4OC)c3n2)CC1 (centres unmarked) [1-methoxypropan-2-yl 4-(3-(2-methoxypyridin-3-yl)pyrazolo[1,5-a]pyrimidin-5-yl)piperazine-1-carboxylate] | ≤ 10 nM | ≤ 10 nM
4 | COc1ncccc1-c1cnn2ccc(N3CC[C@H](N(C)C(=O)OC(C)C)C3)nc12 [(S)-isopropyl (1-(3-(2-methoxypyridin-3-yl)pyrazolo[1,5-a]pyrimidin-5-yl)pyrrolidin-3-yl)(methyl)carbamate] | ≤ 100 nM | ≤ 10 nM
5 | COc1nc(C)ccc1-c1cnn2ccc(N3CCN(C(=O)OC(C)(C)C)CC3)nc12 [tert-butyl 4-(3-(2-methoxy-6-methylpyridin-3-yl)pyrazolo[1,5-a]pyrimidin-5-yl)piperazine-1-carboxylate] | ≤ 10 nM | ≤ 10 nM
6 | COc1ncccc1-c1cnn2ccc(N3CCN(C(=O)OCC(F)(F)F)CC3)nc12 [2,2,2-trifluoroethyl 4-(3-(2-methoxypyridin-3-yl)pyrazolo[1,5-a]pyrimidin-5-yl)piperazine-1-carboxylate] | ≤ 10 nM | ≤ 10 nM
7 | COc1ccccc1-c1cnn2ccc(N3CCN(C(=O)[C@@H](N)C(C)C)CC3)nc12 [(S)-2-amino-1-(4-(3-(2-methoxyphenyl)pyrazolo[1,5-a]pyrimidin-5-yl)piperazin-1-yl)-3-methylbutan-1-one] | ≤ 10 nM | ≤ 10 nM
8 | COC[C@H](N)C(=O)N1CCN(c2ccn3ncc(-c4cccnc4OC)c3n2)CC1 [(S)-2-amino-3-methoxy-1-(4-(3-(2-methoxypyridin-3-yl)pyrazolo[1,5-a]pyrimidin-5-yl)piperazin-1-yl)propan-1-one] | ≤ 10 nM | ≤ 10 nM
9 | COc1ncccc1-c1cnn2ccc(N3CCN(C(=O)OC4CCOCC4)CC3)nc12 [tetrahydro-2H-pyran-4-yl 4-(3-(2-methoxypyridin-3-yl)pyrazolo[1,5-a]pyrimidin-5-yl)piperazine-1-carboxylate] | ≤ 100 nM | ≤ 10 nM
10 | COc1cc(C)c(F)cc1-c1cnn2ccc(N3CCN(C(=O)OC(C)C)CC3)nc12 [isopropyl 4-(3-(5-fluoro-2-methoxy-4-methylphenyl)pyrazolo[1,5-a]pyrimidin-5-yl)piperazine-1-carboxylate] | ≤ 10 nM | ≤ 10 nM
11 | CCCOC(=O)N1CCN(c2ccn3ncc(-c4cc(F)cnc4OC)c3n2)CC1 [propyl 4-(3-(5-fluoro-2-methoxypyridin-3-yl)pyrazolo[1,5-a]pyrimidin-5-yl)piperazine-1-carboxylate] | ≤ 100 nM | ≤ 10 nM
12 | CC(C)[C@H](N)C(=O)N1CCN(c2ccn3ncc(-c4ccccc4)c3n2)CC1 [(S)-2-amino-3-methyl-1-(4-(3-phenylpyrazolo[1,5-a]pyrimidin-5-yl)piperazin-1-yl)butan-1-one] | ≤ 10 nM | ≤ 10 nM
13 | COCCOC(=O)N1CCN(c2ccn3ncc(-c4ccc(C)nc4OC)c3n2)CC1 [2-methoxyethyl 4-(3-(2-methoxy-6-methylpyridin-3-yl)pyrazolo[1,5-a]pyrimidin-5-yl)piperazine-1-carboxylate] | ≤ 100 nM | ≤ 10 nM
14 | COc1ncccc1-c1cnn2ccc(N3CCN(C(=O)C4(N)CCCC4)CC3)nc12 [(1-aminocyclopentyl)(4-(3-(2-methoxypyridin-3-yl)pyrazolo[1,5-a]pyrimidin-5-yl)piperazin-1-yl)methanone] | ≤ 10 nM | ≤ 10 nM
15 | COc1ncccc1-c1cnn2ccc(N3CCN(C(=O)[C@@H](N)CC(C)C)CC3)nc12 [(S)-2-amino-1-(4-(3-(2-methoxypyridin-3-yl)pyrazolo[1,5-a]pyrimidin-5-yl)piperazin-1-yl)-4-methylpentan-1-one] | ≤ 10 nM | ≤ 10 nM
16 | COc1ncc(F)cc1-c1cnn2ccc(N3CCN(C(=O)O[C@@H]4CCOC4)CC3)nc12 [(R)-tetrahydrofuran-3-yl 4-(3-(5-fluoro-2-methoxypyridin-3-yl)pyrazolo[1,5-a]pyrimidin-5-yl)piperazine-1-carboxylate] | ≤ 10 nM | ≤ 10 nM
17 | COC[C@@H](C)OC(=O)N1CCN(c2ccn3ncc(-c4cccnc4OC)c3n2)CC1 [(R)-1-methoxypropan-2-yl 4-(3-(2-methoxypyridin-3-yl)pyrazolo[1,5-a]pyrimidin-5-yl)piperazine-1-carboxylate] | ≤ 1000 nM | ≤ 10 nM
18 | COc1nc(C)ccc1-c1cnn2ccc(N3CCN(C(=O)O[C@@H]4CCOC4)CC3)nc12 [(R)-tetrahydrofuran-3-yl 4-(3-(2-methoxy-6-methylpyridin-3-yl)pyrazolo[1,5-a]pyrimidin-5-yl)piperazine-1-carboxylate] | ≤ 100 nM | ≤ 10 nM
19 | COc1ccc(F)cc1-c1cnn2ccc(N3CCN(C(=O)OC(C)C)CC3)nc12 [isopropyl 4-(3-(5-fluoro-2-methoxyphenyl)pyrazolo[1,5-a]pyrimidin-5-yl)piperazine-1-carboxylate] | ≤ 10 nM | ≤ 10 nM
20 | COc1ncccc1-c1cnn2ccc(N3CCN(C(=O)[C@@H](N)C(C)C)CC3)nc12 [(S)-2-amino-1-(4-(3-(2-methoxypyridin-3-yl)pyrazolo[1,5-a]pyrimidin-5-yl)piperazin-1-yl)-3-methylbutan-1-one] | ≤ 10 nM | ≤ 10 nM
21 | CN[C@H](C(=O)N1CCN(c2ccn3ncc(-c4cccnc4OC)c3n2)CC1)C(C)(C)C [(S)-1-(4-(3-(2-methoxypyridin-3-yl)pyrazolo[1,5-a]pyrimidin-5-yl)piperazin-1-yl)-3,3-dimethyl-2-(methylamino)butan-1-one] | ≤ 100 nM | ≤ 10 nM
22 | COc1cc(C)ccc1-c1cnn2ccc(N3CCN(C(=O)OC(C)C)CC3)nc12 [isopropyl 4-(3-(2-methoxy-4-methylphenyl)pyrazolo[1,5-a]pyrimidin-5-yl)piperazine-1-carboxylate] | ≤ 100 nM | ≤ 10 nM
23 | CC(C)[C@H](N)C(=O)N1CCN(c2ccn3ncc(-c4ccc(F)cc4)c3n2)CC1 [(S)-2-amino-1-(4-(3-(4-fluorophenyl)pyrazolo[1,5-a]pyrimidin-5-yl)piperazin-1-yl)-3-methylbutan-1-one] | ≤ 10 nM | ≤ 10 nM
24 | COc1ccc(F)cc1-c1cnn2ccc(N3CCN(C(=O)[C@@H](N)CC(C)C)CC3)nc12 [(S)-2-amino-1-(4-(3-(5-fluoro-2-methoxyphenyl)pyrazolo[1,5-a]pyrimidin-5-yl)piperazin-1-yl)-4-methylpentan-1-one] | ≤ 10 nM | ≤ 10 nM
25 | COc1ccncc1-c1cnn2ccc(NC[C@@H]3CCCN3C(=O)OC(C)(C)C)nc12 [(S)-tert-butyl 2-(((3-(4-methoxypyridin-3-yl)pyrazolo[1,5-a]pyrimidin-5-yl)amino)methyl)pyrrolidine-1-carboxylate] | ≤ 10 nM | ≤ 10 nM
